pIC50: −log10 of the molar value. Where “and” joins values, the source holds several entries; their conditions need not be identical. Identical values can stand only once.
Key:
[1] = tested on: SK-MEL-2; assay: Tested for inhibitory activity against SK-MEL-2 (human melanoma) tumor cell line; format: functional, cell-based
[2] = tested on: HCT-15; assay: Tested for in vitro cytotoxicity against HCT 15 (human colon) tumor cell line using sulforhodamine B (SRB) assay; not active (> 100 uM); format: functional, cell-based
[3] = tested on: HCT-15 (Homo sapiens); assay: Tested for in vitro cytotoxicity against HCT 15 (human colon) tumor cell line using sulforhodamine B (SRB) assay; not active (> 100 uM)
[4] = tested on: A549; assay: Tested for in vitro cytotoxicity against A 549 (human lung) tumor cell line using sulforhodamine B (SRB) assay; not active (> 100 uM); format: functional, cell-based
[5] = tested on: SK-OV-3; assay: Tested for in vitro cytotoxicity against SKOV-3 (human ovarian) tumor cell line using sulforhodamine B (SRB) assay; not active (> 100 uM); format: functional, cell-based
[6] = tested on: SK-MEL-2; assay: Tested for in vitro cytotoxicity against SK-MEL-2 (human melanoma) tumor cell line using sulforhodamine B (SRB) assay; not active (> 100 uM); format: functional, cell-based
[7] = tested on: SK-MEL-2; assay: In vitro cytotoxicity against SK-MEL-2 (human melanoma) tumor cell line.; format: functional, cell-based
[8] = tested on: SK-OV-3; assay: In vitro cytotoxicity against SKOV-3 (human ovarian) tumor cell line.; format: functional, cell-based
[9] = tested on: A549; assay: Tested for in vitro cytotoxicity against A 549 (human lung) tumor cell line using sulforhodamine B (SRB) assay; format: functional, cell-based
[10] = tested on: HCT-15 (Homo sapiens); assay: In vitro cytotoxicity against HCT 15 (human colon) tumor cell line.
[11] = tested on: XF498 (Homo sapiens); assay: In vitro cytotoxicity against XF498 (human CNS) tumor cell line.
[12] = tested on: SK-OV-3; assay: Tested for in vitro cytotoxicity against SKOV-3 (human ovarian) tumor cell line using sulforhodamine B (SRB) assay; format: functional, cell-based
[13] = tested on: XF498; assay: Tested for in vitro cytotoxicity against XF498 (human CNS) tumor cell line using sulforhodamine B (SRB) assay; format: functional, cell-based
[14] = tested on: SK-MEL-2; assay: Tested for in vitro cytotoxicity against SK-MEL-2 (human melanoma) tumor cell line using sulforhodamine B (SRB) assay; format: functional, cell-based
[15] = tested on: HCT-15; assay: Tested for in vitro cytotoxicity against HCT 15 (human colon) tumor cell line using sulforhodamine B (SRB) assay; format: functional, cell-based
[16] = tested on: HCT-15; assay: In vitro cytotoxicity against HCT 15 (human colon) tumor cell line.; format: functional, cell-based
[17] = tested on: XF498; assay: In vitro cytotoxicity against XF498 (human CNS) tumor cell line.; format: functional, cell-based
[18] = tested on: Mus musculus; assay: In vivo anti tumor activity towards P388 leukemia in BDFl mouse expressed as T/C; format: functional

In the case of C=Cc1cc2c(cc1-c1cc3ccc(OC)c(OC)c3c(=O)n1C)OCO2, the pIC50 [1] was 9.70.

CN(C)c1cccc2c(O)nc(-c3ccc(Br)cc3)cc12 was tested, and the IC50 [2] was “Not Active”, the IC50 [3] was “Not Active” and the IC50 [4] was “Not Active”. For the same compound, the IC50 [5] was “Not Active” and the IC50 [6] was “Not Active”.

Cc1ccc2c(O)nc(-c3ccccc3C)cc2c1 gave a pIC50 ([7]; Homo sapiens, SK-MEL-2) of 5.58, a pIC50 ([8]; Homo sapiens, SK-OV-3) of 5.37 and a pIC50 ([9]; Homo sapiens, A549) of 5.23. It also gave a pIC50 [10] of 5.70 and a pIC50 [11] of 4.51.

Work on COc1ccc(-c2cc3c(N(C)C)cccc3c(N3CCN(C)CC3)n2)cc1 yielded a pIC50 ([7]; Homo sapiens, SK-MEL-2) of 5.40, a pIC50 ([8]; Homo sapiens, SK-OV-3) of 4.88 and a pIC50 ([9]; Homo sapiens, A549) of 5.74. The pIC50 [10] was 4.97 and the pIC50 [11] was 5.21.

CN(C)c1cccc2c(O)nc(-c3ccccc3)cc12 was tested, and the IC50 [2] was “Not Active”, the IC50 [3] was “Not Active” and the IC50 [4] was “Not Active”. The IC50 [5] was “Not Active” and the IC50 [6] was “Not Active”.

CN1CCN(c2nc(-c3ccc(Cl)cc3)cc3c(N(C)C)cccc23)CC1 was tested, and the pIC50 ([7]; Homo sapiens, SK-MEL-2) was 5.37, the pIC50 ([8]; Homo sapiens, SK-OV-3) was 5.12 and the pIC50 ([9]; Homo sapiens, A549) was 5.13. It also gave a pIC50 [10] of 5.14 and a pIC50 [11] of 5.10.

Work on CN1CCN(c2nc(-c3ccccc3)cc3c(N(C)C)cccc23)CC1 yielded a pIC50 ([7]; Homo sapiens, SK-MEL-2) of 5.15, a pIC50 ([8]; Homo sapiens, SK-OV-3) of 4.95 and a pIC50 ([9]; Homo sapiens, A549) of 5.00. It also gave a pIC50 [10] of 5.02 and a pIC50 [11] of 4.70.

In the case of Oc1nc(-c2ccccc2)cc2ccccc12, the pIC50 ([7]; Homo sapiens, SK-MEL-2) was 5.59, the pIC50 ([8]; Homo sapiens, SK-OV-3) was 5.61 and the pIC50 ([9]; Homo sapiens, A549) was 5.24. It also gave a pIC50 [10] of 5.86 and a pIC50 [11] of 5.23.

With COc1ccc(-c2cc3ccccc3c(S)n2)cc1 the IC50 [3] was “Not Active”, the IC50 [4] was “Not Active” and the IC50 [5] was “Not Active”. The pIC50 [11] was 4.08 and the IC50 [6] was “Not Active”.

Cc1ccc(-c2cc3cc(C)ccc3c(O)n2)cc1 gave a pIC50 ([7]; Homo sapiens, SK-MEL-2) of 5.11, a pIC50 ([8]; Homo sapiens, SK-OV-3) of 5.31 and a pIC50 ([9]; Homo sapiens, A549) of 5.25. It also gave a pIC50 [10] of 4.95 and a pIC50 [11] of 4.45.

With COc1ccc(-c2cc3c(N(C)C)cccc3c(O)n2)cc1 the IC50 [2] was “Not Active”, the IC50 [3] was “Not Active” and the IC50 [4] was “Not Active”. The IC50 [5] was “Not Active” and the IC50 [6] was “Not Active”.

In the case of Cc1ccc2c(O)nc(-c3ccc(Cl)cc3)cc2c1, the pIC50 [12] was 5.22, the pIC50 [13] was 4.95 and the pIC50 [9] was 5.24. The pIC50 [14] was 5.20 and the pIC50 [15] was 4.95.

With Cc1ccc(-c2cc3c(N(C)C)cccc3c(O)n2)cc1 the IC50 [2] was “Not Active”, the IC50 [3] was “Not Active” and the IC50 [4] was “Not Active”. The IC50 [5] was “Not Active” and the IC50 [6] was “Not Active”.

For Cc1ccc2c(O)nc(-c3ccccc3)cc2c1, the pIC50 ([7]; Homo sapiens, SK-MEL-2) was 5.80, the pIC50 ([8]; Homo sapiens, SK-OV-3) was 5.77 and the pIC50 ([9]; Homo sapiens, A549) was 5.88. For the same compound, the pIC50 [10] was 6.12 and the pIC50 [11] was 5.29.

Compound Cc1ccc(-c2cc3cc(C)ccc3c(N3CCN(C)CC3)n2)cc1 has a pIC50 ([7]; Homo sapiens, SK-MEL-2) of 5.62, a pIC50 ([8]; Homo sapiens, SK-OV-3) of 5.15 and a pIC50 ([9]; Homo sapiens, A549) of 5.14. For the same compound, the pIC50 [10] was 5.35 and the pIC50 [11] was 5.08.

Cc1ccc2c(S)nc(-c3ccccc3)cc2c1 was tested, and the pIC50 ([7]; Homo sapiens, SK-MEL-2) was 4.71, the pIC50 ([7]; sk-mel-2) was 4.60 and the pIC50 [16] was 4.72 and 4.38. It also gave a pIC50 ([8]; Homo sapiens, SK-OV-3) of 4.46, a pIC50 ([8]; sk-ov-3) of 4.25 and a pIC50 ([9]; Homo sapiens, A549) of 5.07. For the same compound, the pIC50 ([9]; a549) was 4.96 and the pIC50 [17] was 5.04 and 4.12.

Oc1nc(-c2ccc3c(c2)OCO3)cc2ccccc12 was tested, and the pIC50 ([7]; Homo sapiens, SK-MEL-2) was 4.60, the pIC50 ([8]; Homo sapiens, SK-OV-3) was 4.11 and the IC50 [4] was “Not Active”. The pIC50 [10] was 5.57 and the pIC50 [11] was 4.75.

For COc1ccc(-c2cc3cc(C)ccc3c(N3CCN(C)CC3)n2)cc1, the pIC50 ([7]; Homo sapiens, SK-MEL-2) was 5.43, the pIC50 ([8]; Homo sapiens, SK-OV-3) was 5.10 and the pIC50 ([9]; Homo sapiens, A549) was 5.13. The pIC50 [10] was 5.13 and the pIC50 [11] was 5.03.

CN1CCN(c2nc(-c3ccccc3)cc3ccccc23)CC1 showed a pIC50 ([7]; Homo sapiens, SK-MEL-2) of 4.93, a pIC50 ([8]; Homo sapiens, SK-OV-3) of 4.65 and a pIC50 ([9]; Homo sapiens, A549) of 4.60. The T/C [18] was 160%, the pIC50 [10] was 4.73 and the pIC50 [11] was 4.43.

Cc1ccc(-c2cc3ccccc3c(O)n2)cc1 was tested, and the pIC50 ([7]; Homo sapiens, SK-MEL-2) was 5.30, the pIC50 ([8]; Homo sapiens, SK-OV-3) was 4.86 and the pIC50 ([9]; Homo sapiens, A549) was 4.52. For the same compound, the pIC50 [10] was 5.15 and the pIC50 [11] was 4.37.

Cc1ccc2c(N3CCN(C)CC3)nc(-c3ccc(Cl)cc3)cc2c1 showed a pIC50 ([7]; Homo sapiens, SK-MEL-2) of 5.62, a pIC50 ([8]; Homo sapiens, SK-OV-3) of 5.24 and a pIC50 ([9]; Homo sapiens, A549) of 5.50. The pIC50 [10] was 5.39 and the pIC50 [11] was 5.22.

Oc1nc(-c2ccc(C(F)(F)F)cc2)cc2ccccc12 was tested, and the pIC50 ([8]; Homo sapiens, SK-OV-3) was 4.06, the IC50 [2] was “Not Active” and the IC50 [3] was “Not Active”. The IC50 [4] was “Not Active” and the IC50 [6] was “Not Active”.

For Sc1nc(-c2ccccc2)cc2ccccc12, the IC50 [2] was “Not Active”, the IC50 [3] was “Not Active” and the IC50 [4] was “Not Active”. The IC50 [5] was “Not Active” and the IC50 [6] was “Not Active”.

Compound Cc1ccc2c(N3CCN(C)CC3)nc(-c3ccccc3C)cc2c1 has a pIC50 ([7]; Homo sapiens, SK-MEL-2) of 5.47, a pIC50 ([8]; Homo sapiens, SK-OV-3) of 5.29 and a pIC50 ([9]; Homo sapiens, A549) of 5.12. For the same compound, the pIC50 [10] was 5.18 and the pIC50 [11] was 4.11.

COc1ccc2c(c[n+](C)c3c4cc5c(cc4ccc23)OCO5)c1O [FAGARIDINE] gave a pIC50 ([7]; Homo sapiens, SK-MEL-2) of 5.56, a pIC50 ([8]; Homo sapiens, SK-OV-3) of 5.87 and a pIC50 ([9]; Homo sapiens, A549) of 5.99. The pIC50 [10] was 5.95 and the pIC50 [11] was 5.95.

Source: ChEMBL document CHEMBL1130973, “Synthesis and biological evaluation of 3-arylisoquinolines as antitumor agents” (Bioorg Med Chem Lett, 1998)
